# Assay results published in patent publication US10294202B2, “Pyrrolidinones as herbicides” (FMC Corporation, priority 2013, dated 2019).
# Assays:
# nightshade = test: Test E preemergence herbicide test; type: in vivo, Solanum ptycanthum; design: key: 0 = no effect, 100 = complete control
# Description: (§1) Seeds of plant species selected from corn (Zea mays), soybean (Glycine max), velvetleaf (Abutilon theophrasti), lambsquarters (Chenopodium album), wild poinsettia (Euphorbia heterophylla), pigweed, palmer (palmer pigweed, Amaranthus palmeri), waterhemp (common waterhemp, Amaranthus rudis), surinam grass (Brachiaria decumbens), crabgrass, large (large crabgrass, Digitaria sanguinalis), crabgrass, Brazil (Brazilian crabgrass, Digitaria horizontalis), panicum, fall (fall panicum, Panicum dichotomiflorum), foxtail, giant (giant foxtail, Setaria faberii), foxtail, green (green foxtail, Setaria viridis), goosegrass (Eleusine indica), johnsongrass (Sorghum halepense), ragweed (common ragweed, Ambrosia elatior), barnyardgrass (Echinochloa crus-galli), sandbur (southern sandbur, Cenchrus echinatus), arrowleaf […] rhombifolia), ryegrass, Italian (Italian ryegrass, Lolium multiflorum), dayflower, VA (Virginia dayflower, Commelina virginica), field bindweed (Convolvulus arvensis), morningglory (Ipomoea coccinea), nightshade (eastern black nightshade, Solanum ptycanthum), kochia (Kochia scoparia), nutsedge, yellow (yellow nutsedge, Cyperus esculentus), cocklebur (common cocklebur, Xanthium strumarium), smartweed (ladysthumb smartweed, Polygonum Persicaria) and beggarticks (hairy beggarticks, Bidens pilosa), were planted into a silt loam soil and treated preemergence with test chemicals formulated in a non-phytotoxic solvent mixture which included a surfactant. Treated plants and controls were maintained in a greenhouse for 21 days, after which time all species were compared to controls and visually evaluated. Plant response ratings, summarized in Table E, are based on a scale of 0 to 100 where 0 is no effect and 100 is complete control. A dash (-) response means no test result.
# beggarticks = test: Test E preemergence herbicide test; type: in vivo, Bidens pilosa; design: key: 0 = no effect, 100 = complete control
# Description: as §1
# crabgrass, Brazil = test: Test E preemergence herbicide test; type: in vivo, Digitaria horizontalis; design: key: 0 = no effect, 100 = complete control
# Description: as §1
# corn = test: Test E preemergence herbicide test; type: in vivo, Zea mays; design: key: 0 = no effect, 100 = complete control
# Description: as §1
# ragweed = test: Test E preemergence herbicide test; type: in vivo, Ambrosia elatior; design: key: 0 = no effect, 100 = complete control
# Description: as §1
# speedwell = test: Test D pre-/postemergence herbicide test; type: in vivo, Veronica persica; details: for Plant response rating, Speedwell: Preemergence, scale 0 to 100 (0 no effect, 100 complete control); for Plant response rating: Postemergence, Speedwell, scale 0 to 100
# Description: (§2) Seeds of plant species selected from bluegrass (annual bluegrass, Poa annua), blackgrass (Alopecurus myosuroides), canarygrass (littleseed canarygrass, Phalaris minor), chickweed (common chickweed, Stellaria media), galium (catchweed bedstraw, Galium aparine), bromegrass, downy (downy bromegrass, Bromus tectorum), field poppy (Papaver rhoeas), field violet (Viola arvensis), foxtail, green (green foxtail, Setaria viridis), deadnettle (henbit deadnettle, Lamium amplexicaule), ryegrass, Italian (Italian ryegrass, Lolium multiflorum), kochia (Kochia scoparia), lambsquarters (Chenopodium album), oilseed rape (Brassica napus), pigweed (Amaranthus retroflexus), chamomile (scentless chamomile, Matricaria inodora), Russian thistle (Salsola kali), speedwell (bird's-eye speedwell, Veronica persica), barley, spring (spring barley, Hordeum vulgare), wheat, spring (spring wheat, Triticum aestivum), buckwheat, wild (wild buckwheat, Polygonum convolvulus), mustard, wild (wild mustard, Sinapis arvensis), oat, wild (wild oat, Avena fatua), radish, wild (wild radish, Raphanus raphanistrum), […]), barley, winter (winter barley, Hordeum vulgare), and wheat, winter (winter wheat, Triticum aestivum) were planted into a silt loam soil and treated preemergence with test chemicals formulated in a non-phytotoxic solvent mixture which included a surfactant. At the same time, these species were planted in pots containing Redi-Earth® planting medium (Scotts Company, 14111 Scottslawn Road, Marysville, Ohio 43041) comprising spaghnum peat moss, vermiculite, wetting agent and starter nutrients and treated with postemergence applications of the test chemicals formulated in the same manner. Plants ranged in height from 2 to 18 cm (1- to 4-leaf stage). Treated plants and controls were maintained in a controlled growth environment for 7 to 21 days after which time all species were compared to controls and visually evaluated. Plant response ratings, summarized in Table D, are based on a scale of 0 to 100 where 0 is no effect and 100 is complete control. A dash (-) response means no test result.
# windgrass = test: Test D pre-/postemergence herbicide test; type: in vivo, Apera spica-venti; details: for Plant response rating, Windgrass: Preemergence, scale 0 to 100 (0 no effect, 100 complete control); for Plant response rating: Postemergence, Windgrass, scale 0 to 100
# Description: as §2
# pigweed = test: Test D pre-/postemergence herbicide test; type: in vivo, Amaranthus retroflexus; details: for Plant response rating, Pigweed: Preemergence, scale 0 to 100 (0 no effect, 100 complete control); for Plant response rating: Postemergence, Pigweed, scale 0 to 100
# Procedure, shortened: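 Seeds sown in silt loam were sprayed preemergence with test chemicals in a non-phytotoxic solvent mixture with surfactant. Postemergence plants grown in peat/vermiculite medium were treated at 2–18 cm (1- to 4-leaf stage). After 7 to 21 days in a controlled environment, injury was rated visually versus controls, 0 (no effect) to 100 (complete control).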
# oilseed rape = test: Test D pre-/postemergence herbicide test; type: in vivo, Brassica napus; details: for Plant response rating, Oilseed Rape: Preemergence, scale 0 to 100 (0 no effect, 100 complete control); for Plant response rating: Postemergence, Oilseed Rape, scale 0 to 100
# Description: as §2
# wheat, spring = test: Test D pre-/postemergence herbicide test; type: in vivo, Triticum aestivum; details: for Plant response rating, Wheat, Spring: Preemergence, scale 0 to 100 (0 no effect, 100 complete control); for Plant response rating: Postemergence, Wheat, Spring, scale 0 to 100
# Description: as §2
# wheat, winter = test: Test D pre-/postemergence herbicide test; type: in vivo, Triticum aestivum; details: for Plant response rating, Wheat, Winter: Preemergence, scale 0 to 100 (0 no effect, 100 complete control); for Plant response rating: Postemergence, Wheat, Winter, scale 0 to 100
# Description: as §2
smiles,measurement,setting,value
O=C1NCC(c2cccc(Br)c2)C1C(=O)Nc1ccccc1F (stereo not shown) [Compound 66],"Plant response rating, Nightshade",nightshade; 16 g ai/ha,0
same,"Plant response rating, Nightshade",nightshade; 31 g ai/ha,0
same,"Plant response rating, Nightshade",nightshade; 62 g ai/ha,0
same,"Plant response rating, Nightshade",nightshade; 250 g ai/ha,0
same,"Plant response rating, Beggarticks",beggarticks; 16 g ai/ha,0
same,"Plant response rating, Beggarticks",beggarticks; 31 g ai/ha,0
same,"Plant response rating, Beggarticks",beggarticks; 62 g ai/ha,0
same,"Plant response rating, Beggarticks",beggarticks; 125 g ai/ha,0
same,"Plant response rating, Beggarticks",beggarticks; 250 g ai/ha,0
same,"Plant response rating, Crabgrass, Brazil","crabgrass, Brazil; 16 g ai/ha",85
same,"Plant response rating, Crabgrass, Brazil","crabgrass, Brazil; 31 g ai/ha",85
same,"Plant response rating, Crabgrass, Brazil","crabgrass, Brazil; 62 g ai/ha",95
same,"Plant response rating, Crabgrass, Brazil","crabgrass, Brazil; 125 g ai/ha",98
same,"Plant response rating, Crabgrass, Brazil","crabgrass, Brazil; 250 g ai/ha",98
same,"Plant response rating, Corn",corn; 16 g ai/ha,0
same,"Plant response rating, Corn",corn; 31 g ai/ha,0
same,"Plant response rating, Corn",corn; 62 g ai/ha,0
same,"Plant response rating, Corn",corn; 125 g ai/ha,0
same,"Plant response rating, Corn",corn; 250 g ai/ha,0
same,"Plant response rating, Ragweed",ragweed; 16 g ai/ha,0
same,"Plant response rating, Ragweed",ragweed; 31 g ai/ha,0
same,"Plant response rating, Ragweed",ragweed; 62 g ai/ha,0
same,"Plant response rating, Ragweed",ragweed; 125 g ai/ha,0
same,"Plant response rating, Ragweed",ragweed; 250 g ai/ha,20
O=C1NCC(c2cccc(C(F)(F)F)c2)C1C(=O)Nc1ccc(F)cc1F (racemic) [Compound 207],"Plant response rating, Speedwell",speedwell; 31 g ai/ha,20
same,"Plant response rating, Speedwell",speedwell; 62 g ai/ha,20
same,"Plant response rating, Speedwell",speedwell; 125 g ai/ha,25
same,"Plant response rating, Speedwell",speedwell; 250 g ai/ha,30
same,"Plant response rating, Windgrass",windgrass; 31 g ai/ha,5
same,"Plant response rating, Windgrass",windgrass; 62 g ai/ha,20
same,"Plant response rating, Windgrass",windgrass; 125 g ai/ha,20
same,"Plant response rating, Windgrass",windgrass; 250 g ai/ha,65
same,"Plant response rating, Pigweed",pigweed; 31 g ai/ha,0
same,"Plant response rating, Pigweed",pigweed; 62 g ai/ha,0
same,"Plant response rating, Pigweed",pigweed; 125 g ai/ha,0
same,"Plant response rating, Pigweed",pigweed; 250 g ai/ha,5
same,"Plant response rating, Oilseed Rape",oilseed rape; 31 g ai/ha,0
same,"Plant response rating, Oilseed Rape",oilseed rape; 62 g ai/ha,0
same,"Plant response rating, Oilseed Rape",oilseed rape; 125 g ai/ha,0
same,"Plant response rating, Oilseed Rape",oilseed rape; 250 g ai/ha,0
same,"Plant response rating, Wheat, Spring","wheat, spring; 31 g ai/ha",5
same,"Plant response rating, Wheat, Spring","wheat, spring; 62 g ai/ha",10
same,"Plant response rating, Wheat, Spring","wheat, spring; 125 g ai/ha",10
same,"Plant response rating, Wheat, Spring","wheat, spring; 250 g ai/ha",10
same,"Plant response rating, Wheat, Winter","wheat, winter; 31 g ai/ha",0
same,"Plant response rating, Wheat, Winter","wheat, winter; 62 g ai/ha",15
same,"Plant response rating, Wheat, Winter","wheat, winter; 125 g ai/ha",10
same,"Plant response rating, Wheat, Winter","wheat, winter; 250 g ai/ha",20
O=C1NCC(c2ccc(C(F)(F)F)cc2)C1C(=O)Nc1ccc(F)c(F)c1F (stereo not shown) [Compound 232],"Plant response rating, Nightshade",nightshade; 31 g ai/ha,25
same,"Plant response rating, Nightshade",nightshade; 62 g ai/ha,75
same,"Plant response rating, Nightshade",nightshade; 125 g ai/ha,98
same,"Plant response rating, Beggarticks",beggarticks; 31 g ai/ha,0
same,"Plant response rating, Beggarticks",beggarticks; 62 g ai/ha,0
same,"Plant response rating, Beggarticks",beggarticks; 125 g ai/ha,20
same,"Plant response rating, Beggarticks",beggarticks; 250 g ai/ha,60
same,"Plant response rating, Crabgrass, Brazil","crabgrass, Brazil; 31 g ai/ha",95
same,"Plant response rating, Crabgrass, Brazil","crabgrass, Brazil; 62 g ai/ha",98
same,"Plant response rating, Crabgrass, Brazil","crabgrass, Brazil; 125 g ai/ha",98
same,"Plant response rating, Crabgrass, Brazil","crabgrass, Brazil; 250 g ai/ha",98
same,"Plant response rating, Corn",corn; 31 g ai/ha,0
same,"Plant response rating, Corn",corn; 62 g ai/ha,0
same,"Plant response rating, Corn",corn; 125 g ai/ha,0
same,"Plant response rating, Corn",corn; 250 g ai/ha,0
same,"Plant response rating, Ragweed",ragweed; 31 g ai/ha,35
same,"Plant response rating, Ragweed",ragweed; 62 g ai/ha,75
same,"Plant response rating, Ragweed",ragweed; 125 g ai/ha,95
same,"Plant response rating, Ragweed",ragweed; 250 g ai/ha,95
O=C1NCC(c2cc(F)c(F)c(F)c2)C1C(=O)Nc1ccccc1F (racemic) [Compound 34],Plant response rating,speedwell; 16 g ai/ha,0
same,Plant response rating,speedwell; 31 g ai/ha,0
same,Plant response rating,speedwell; 62 g ai/ha,0
same,Plant response rating,speedwell; 125 g ai/ha,0
same,Plant response rating,speedwell; 250 g ai/ha,30
same,Plant response rating,windgrass; 16 g ai/ha,0
same,Plant response rating,windgrass; 31 g ai/ha,0
same,Plant response rating,windgrass; 62 g ai/ha,0
same,Plant response rating,windgrass; 125 g ai/ha,0
same,Plant response rating,windgrass; 250 g ai/ha,0
same,Plant response rating,pigweed; 16 g ai/ha,0
same,Plant response rating,pigweed; 31 g ai/ha,0
same,Plant response rating,pigweed; 62 g ai/ha,0
same,Plant response rating,pigweed; 125 g ai/ha,0
same,Plant response rating,pigweed; 250 g ai/ha,10
same,Plant response rating,oilseed rape; 16 g ai/ha,0
same,Plant response rating,oilseed rape; 31 g ai/ha,0
same,Plant response rating,oilseed rape; 62 g ai/ha,0
same,Plant response rating,oilseed rape; 125 g ai/ha,0
same,Plant response rating,oilseed rape; 250 g ai/ha,20
same,Plant response rating,"wheat, spring; 16 g ai/ha",0
same,Plant response rating,"wheat, spring; 31 g ai/ha",0
same,Plant response rating,"wheat, spring; 62 g ai/ha",0
same,Plant response rating,"wheat, spring; 125 g ai/ha",0
same,Plant response rating,"wheat, spring; 250 g ai/ha",0
same,Plant response rating,"wheat, winter; 16 g ai/ha",0
same,Plant response rating,"wheat, winter; 31 g ai/ha",0
same,Plant response rating,"wheat, winter; 62 g ai/ha",0
same,Plant response rating,"wheat, winter; 125 g ai/ha",0
same,Plant response rating,"wheat, winter; 250 g ai/ha",0
